Assay: Partition coefficient (Log Po/w) of direct dyes
Conditions: octanol/water partition coefficient; for Log Po/w: table of dyes

Log Po/w	Log Po/w value	Molecule
0.21	–	O=[N+]([O-])c1cc(O)ccc1NCCO [3-NITRO-P-HYDROXYETHYLAMINOPHENOL]
1.19	–	Nc1ccc(O)cc1[N+](=O)[O-] [4-AMINO-3-NITROPHENOL]
1.2	–	Nc1c(N=Nc2ccc([N+](=O)[O-])cc2)c(S(=O)(=O)[O-])cc2cc(S(=O)(=O)[O-])c(N=Nc3ccccc3)c(O)c12.[Na+].[Na+] [ACID BLACK 1]
−0.32	–	CCN(Cc1cccc(S(=O)(=O)[O-])c1)c1ccc(C(=C2C=CC(=[N+](CC)Cc3cccc(S(=O)(=O)[O-])c3)C=C2)c2ccccc2S(=O)(=O)[O-])cc1.[Na+].[Na+] [ACID BLUE 9]
5.71	–	Cc1ccc(Nc2ccc(Nc3ccc(C)cc3S(=O)(=O)[O-])c3c2C(=O)c2ccccc2C3=O)c(S(=O)(=O)[O-])c1.[Na+].[Na+] [ACID GREEN 25]
1.4	–	O=S(=O)([O-])c1ccc(N=Nc2c(O)ccc3ccccc23)cc1.[Na+] [ACID ORANGE 7]
1.63	–	O=S(=O)(O)c1cc(S(=O)(=O)O)c2c(/N=N\c3ccc(S(=O)(=O)O)c4ccccc34)c(O)ccc2c1 [ACID RED18]
0.5	–	Nc1cc(S(=O)(=O)[O-])cc2cc(S(=O)(=O)[O-])c(N=Nc3ccccc3)c(O)c12.[Na+].[Na+] [ACID RED 33]
1.3	–	CCN(CC)c1ccc2c(-c3ccc(S(=O)(=O)[O-])cc3S(=O)(=O)[O-])c3ccc(=[N+](CC)CC)cc-3oc2c1.[Na+] [ACID RED 52]
−10.17	–	O=C([O-])C1=NN(c2ccc(S(=O)(=O)[O-])cc2)C(=O)C1N=Nc1ccc(S(=O)(=O)[O-])cc1.[Na+].[Na+].[Na+] (centres unmarked) [ACID YELLOW 23]
3.1	–	Cc1ccc(Nc2ccc(O)c3c2C(=O)c2ccccc2C3=O)c(S(=O)(=O)[O-])c1.[Na+] [ACIDE VIOLET 43]
1.88	–	C[N+](C)(C)c1cccc(N=C2C=C(N)c3c(O)c(Br)cc(N)c3C2=O)c1.[Cl-] [BASIC BLUE 99]
−0.15	–	C[N+](C)(C)c1ccc2ccc(O)c(N=Nc3ccc(N)c([N+](=O)[O-])c3)c2c1.[Cl-] [BASIC BROWN 17]
−2.31	around −2.31	Cn1cc[n+](C)c1N=Nc1ccc(N)cc1.[Cl-] [BASIC ORANGE 31, Basic Orange 31]
−1.97	around −1.97	CN(C)c1ccc(/N=N/c2n(C)cc[n+]2C)cc1 [BASIC RED 51, Basic Red 51]
0.06	–	CC1=NN(c2ccccc2)C(=O)C1N=Nc1cccc([N+](C)(C)C)c1.[Cl-] (centres unmarked) [BASIC YELLOW 57]
−1.69	around −1.67	CN(N=Cc1cc[n+](C)cc1)c1ccccc1 [BASIC YELLOW 87, Basic Yellow 87]
3	–	Nc1ccc(N)c2c1C(=O)c1ccccc1C2=O [DISPERSE VIOLET 1]
−0.32	–	O=[N+]([O-])c1cc(N(CCO)CCO)ccc1NCCO [HC BLUE NO. 2]
2.09	–	O=C1c2ccccc2C(=O)c2c(NCC(O)CO)ccc(NCC(O)CO)c21 (centres unmarked) [HC BLUE NO. 14]
3.47	–	CC1=CC(=C(c2cc(C)c(N)c(C)c2)c2c(Cl)cccc2Cl)C=C(C)C1=N.O=P(O)(O)O [HC BLUE NO. 15]
0.13	–	NCCNc1ccc(OCCO)cc1[N+](=O)[O-] [HC ORANGE NO. 2]
−0.42	–	Nc1ccc(NCCO)c([N+](=O)[O-])c1 [HC RED NO. 3]
0.67	–	Cc1cc(N)c([N+](=O)[O-])cc1NCCO [HC VIOLET NO 1]
0.608	–	O=[N+]([O-])c1cc(N(CCO)CCO)ccc1NCCCO [HC VIOLET NO 2]
2.59	–	Cc1cc(N(CCO)CCO)ccc1N=Nc1ccc(N)cc1 [HC YELLOW NO. 7]
1.3	–	COc1ccc([N+](=O)[O-])c(NCCN)c1.Cl [HC YELLOW NO. 9]
0.89	–	COS(=O)(=O)[O-].C[N+]1(CCCNc2ccc(O)c3c2C(=O)c2ccccc2C3=O)CCOCC1 [HYDROXYANTHRAQUINONEAMINO-PROPYL METHYL MORPHOLINIUM METHOSULFATE]
−1.05	–	ACID YELLOW 3
0.13	–	HC RED NO. 7

Molecule	Log Po/w	Log Po/w value
CNc1cc(OCC(O)CO)ccc1[N+](=O)[O-] (centres unmarked) [2-NITRO-5-GLYCERYL METHYLANILINE]	0.89	–
O=C([O-])c1c(Cl)c(Cl)c(Cl)c(Cl)c1-c1c2cc(Br)c(=O)c(Br)c-2oc2c(Br)c([O-])c(Br)cc12.[Na+].[Na+] [ACIDE RED 92]	3	–

— patent US11160742B2, “Methods and compositions for improving hair color fastness and rejuvenating hair color” (L'Oreal, priority 2018, dated 2021)
